For two molecules, IC50 results are on record in paper PMC9728158, “Two Flavonoid-Based Compounds from Murraya paniculata as Novel Human Carbonic Anhydrase Isozyme II Inhibitors Detected by a Resazurin Yeast-Based Assay” (Journal of Microbiology and Biotechnology, 2019).

This experiment deals with T1, human carbonic anhydrase isozyme II (hCAII) (Homo sapiens, UniProt P00918).
T1 construct: gene CA2
Briefly: in vitro esterase assay (4-NPA hydrolysis, […] nm); also yeast-based hCAII assay. It is filed as biochemical.

Molecule `COc1cc(-c2cc(=O)c3c(OC)c(OC)c(OC)c(OC)c3o2)cc(OC)c1OC` [compound 4, 5,6,7,8,3′,4′,5′-heptamethoxyflavone] came in with an IC50 of 24 µM.

Turning to `COc1cc(-c2oc3c(OC)c(OC)cc(OC)c3c(=O)c2OC)cc(OC)c1OC` [compound 9, 3,5,7,8,3′,4′,5′-Heptamethoxyflavone], the midpoint of inhibition, the IC50, lay at 34.3 µM.
